In patent US20230190774A1, “METHOD OF USING SUBSTRATES OF AKR1Bl/AKR1B10 AS ANTI-CANCER DRUGS” (Beijing Normal University Hong Kong Baptist University …, priority 2015, published 2023):

Columns and labels:
glycolysis = details: background statement; cited from earlier work
CaCo2 cells [1] = assay: Cytotoxicity assay (cell survival rate, MTT); assay type: cell-based; details: inhibitor 24 h, then 2DG (20 mM) for additional 48 h
Protocol: (§1) HepG2 cells, SKOV3 cells, HCT116 cells and CaCo2 cells were cultured in DMEM medium, SW480 cells in 1640 medium, and HT29 cells in McCoy’s 5A medium. All cell culture media were supplemented with 10% FBS, 1% PSN, and cells were cultured in a humidified incubator containing 5% CO2 at 37° C. In cytotoxicity assays, cells were seeded at 1 × 10^5 cells/well in 96 well plates with full medium. In GSH assay and Western blot analysis, cells were seeded at 3× 10^6 cells/well in 6 well plates.
(§2) The AKR1Bs substrates’ cytotoxicity was assessed by cell survival rate using MTT assay. After the cells were treated with the substrates for the length of time indicated, MTT was added to a final concentration of 0.5 mg/ml in each well of a 96-well plate, and the plates were incubated at 37° C. for 4 hour. Then DMSO was added to dissolve the formazan product, the amount of which is proportional to the number of live cells. The absorbance of dissolved dye was measured at 540 nm using an automatic microplate reader.

HepG2 cells [2] = assay: Cytotoxicity assay (cell survival rate, MTT); assay type: cell-based; details: inhibitor 24 h, then 2DG (20 mM) for additional 48 h
Protocol: as §1, §2

HCT116 cells [3] = assay: Cytotoxicity assay (cell survival rate, MTT); assay type: cell-based; details: inhibitor 24 h, then 2DG (20 mM) for additional 48 h
Protocol: as §1, §2

SKOV3 cells [4] = assay: Cytotoxicity assay (cell survival rate, MTT); assay type: cell-based; details: inhibitor 24 h, then 2DG (20 mM) for additional 48 h
Protocol: as §1, §2

CaCo2 cells [5] = assay: GSH assay of cell lysates; assay type: cell-based; details: inhibitor (40 µM) 24 h, then 2DG (20 mM) 48 h
Protocol: as §1
(§3) The cells were washed in cold PBS and then scraped into 300 µL of PBS. The cells were disrupted by ultrasonicator on ice followed by centrifuged at 3500 rpm at 4° C. The supernatant was transferred to a fresh tube and used for GSH assay using GSH assay kit. The concentrations of GSH in cell lysates were determined using the standard GSH calibration curve. The GSH detection for each sample was performed at least three times.

HCT116 cells [6] = assay: GSH assay of cell lysates; assay type: cell-based; details: inhibitor (40 µM) 24 h, then 2DG (20 mM) 48 h
Protocol: as §1, §3

HepG2 cells [7] = assay: GSH assay of cell lysates; assay type: cell-based; details: inhibitor (40 µM) 24 h, then 2DG (20 mM) 48 h
Protocol: as §1, §3

SKOV3 cells [8] = assay: GSH assay of cell lysates; assay type: cell-based; details: inhibitor (40 µM) 24 h, then 2DG (20 mM) 48 h
Protocol: as §1, §3

SMILES | Potency as glycolysis inhibitor relative to 2DG (glycolysis) | Protection against 2DG toxicity by AKR1Bs inhibitor (survival rate) (CaCo2 cells [1]) | Protection against 2DG toxicity by AKR1Bs inhibitor (survival rate) (HepG2 cells [2]) | Protection against 2DG toxicity by AKR1Bs inhibitor (survival rate) (HCT116 cells [3]) | Protection against 2DG toxicity by AKR1Bs inhibitor (survival rate) (SKOV3 cells [4]) | Restoration of GSH level in 2DG treated cells by AKR1Bs inhibitor (CaCo2 cells [5]) | Restoration of GSH level in 2DG treated cells by AKR1Bs inhibitor (HCT116 cells [6]) | Restoration of GSH level in 2DG treated cells by AKR1Bs inhibitor (HepG2 cells [7]) | Restoration of GSH level in 2DG treated cells by AKR1Bs inhibitor (SKOV3 cells [8])
O=C[C@H](F)[C@@H](O)[C@H](O)[C@H](O)CO [2FDG, 2-fluorodeoxy-D-glucose] | more potent glycolysis inhibitor than 2DG |  |  |  |  |  |  |  | 
NC(=O)[C@@H]1C[C@]2(NC(=O)NC2=O)c2cc(F)ccc2O1 [Fidarestat] |  | protected | less effective in protecting | protected | less effective in protecting | able to increase | able to increase |  | 
COc1ccc2c(C(=S)N(C)CC(=O)O)cccc2c1C(F)(F)F [Tolrestat] |  | dose-dependently protected | dose-dependently protected | dose-dependently protected | dose-dependently protected | significantly restored | significantly restored | significantly restored | significantly restored
